According to paper PMC3894222 (PLoS Pathogens, 2014):

How the values were obtained:
Sm5HTR [1] = biological target: T1, Sm5HTR (Schistosoma mansoni, UniProt G4V5G4); assay: cAMP fluorescent competitive immunoassay, transfected HEK […] cells; assay type: cell-based; details: 20 uM forskolin, IBMX pretreatment, 37 °C, 10 min
T1 construct: gene 5HT-1; full length, 463 residues, 52 kDa; pCI-neo; transiently transfected HEK 293 cells
T1 sequence (G4V5G4 1-463): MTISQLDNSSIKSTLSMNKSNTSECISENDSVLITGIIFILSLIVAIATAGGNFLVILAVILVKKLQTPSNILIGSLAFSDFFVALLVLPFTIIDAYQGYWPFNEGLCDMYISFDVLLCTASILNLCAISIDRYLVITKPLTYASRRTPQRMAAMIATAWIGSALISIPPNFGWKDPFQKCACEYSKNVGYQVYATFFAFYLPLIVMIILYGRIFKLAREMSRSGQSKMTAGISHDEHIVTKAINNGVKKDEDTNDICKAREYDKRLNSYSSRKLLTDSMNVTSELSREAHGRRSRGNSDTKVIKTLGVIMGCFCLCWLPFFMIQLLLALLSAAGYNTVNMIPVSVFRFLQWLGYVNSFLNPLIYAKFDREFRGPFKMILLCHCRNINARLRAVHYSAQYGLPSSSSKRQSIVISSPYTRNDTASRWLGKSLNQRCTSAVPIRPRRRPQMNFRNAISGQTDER

Sm5HTR [2] = biological target: T1, Sm5HTR; assay: as above; assay type: cell-based
[3] = antagonist at 100 uM against 100 uM serotonin

| SMILES | cAMP fluorescent competitive immunoassay, transfected HEK 293 cells (Sm5HTR [1]; [3]) | cAMP fluorescent competitive immunoassay, transfected HEK 293 cells (Sm5HTR [1]; agonist at 100 uM) | also measured |
| --- | --- | --- | --- |
| CN1CCC(=C2c3ccccc3C=Cc3ccccc32)CC1 [CPH, cyproheptadine] | inhibited by co-application of common serotonergic antagonists such as cyproheptadine or mianserin | – | – |
| NCCc1c[nH]c2ccccc12 [Trp, tryptamine] | – | classical (i.e. mammalian) serotonergic agonists such as tryptamine, DPAT and buspiperone | – |
| O=C1CC2(CCCC2)CC(=O)N1CCCCN1CCN(c2ncccn2)CC1 [BUS, buspirone] | – | classical (i.e. mammalian) serotonergic agonists such as tryptamine, DPAT and buspiperone | – |
| CCCN(CCC)C1CCc2cccc(O)c2C1 (stereo not drawn) [DPAT, 8-Hydroxy-DPAT] | – | classical (i.e. mammalian) serotonergic agonists such as tryptamine, DPAT and buspiperone | – |
| CN1CCN2c3ccccc3Cc3ccccc3C2C1 (stereo not drawn) [MIAN, mianserin] | inhibited by co-application of common serotonergic antagonists such as cyproheptadine or mianserin | – | – |
| COc1ccc2[nH]cc(CCN)c2c1 [methyl-5HT, o-methyl-serotonin] | – | – | EC50 (Sm5HTR [2]): 0.0722 µM |
